# In patent US20070270434A1, “SULFONYL-SUBSTITUTED BICYCLIC COMPOUNDS AS MODULATORS OF PPAR” (KALYPSYS, INC., priority 2006, published 2007):
# Legend:
# Type in all cases: cell-based, murine and human
# Details in all cases: 20-24 hours
# [1] = biological target: T1, PPAR-delta ligand binding domain fused to GAL4 DNA binding domain (UniProt Q03181); experiment: Transient transfection transactivation assay in CV-1 cells, PPAR-delta (GAL4 chimera, luciferase reporter)
# T1 sequence (Q03181 1-441): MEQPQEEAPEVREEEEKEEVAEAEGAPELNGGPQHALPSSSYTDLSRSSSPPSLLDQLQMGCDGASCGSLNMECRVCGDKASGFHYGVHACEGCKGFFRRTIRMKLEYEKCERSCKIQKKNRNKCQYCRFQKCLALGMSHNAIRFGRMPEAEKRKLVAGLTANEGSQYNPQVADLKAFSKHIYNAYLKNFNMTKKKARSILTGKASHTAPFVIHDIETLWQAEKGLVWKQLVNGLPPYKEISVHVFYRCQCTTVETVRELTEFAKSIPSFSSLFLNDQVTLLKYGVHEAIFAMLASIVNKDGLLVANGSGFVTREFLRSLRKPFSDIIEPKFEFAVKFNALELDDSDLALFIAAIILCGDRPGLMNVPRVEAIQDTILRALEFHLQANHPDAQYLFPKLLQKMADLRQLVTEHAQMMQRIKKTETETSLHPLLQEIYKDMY
# Source text: (§1) Compounds may be screened for functional potency in transient transfection assays in CV-1 cells for their ability to activate the PPAR subtypes (transactivation assay). A previously established chimeric receptor system was utilized to allow comparison of the relative transcriptional activity of the receptor subtypes on the same synthetic response element and to prevent endogenous receptor activation from complicating the interpretation of results. See, for example, Lehmann, J. M.; Moore, L. B.; Smith-Oliver, T. A; Wilkinson, W. O.; Willson, T. M.; Kliewer, S. A., An antidiabetic thiazolidinedione is a high affinity ligand for peroxisome proliferator-activated receptor […], J. Biol. Chem., 1995, 270, 12953-6. The ligand binding domains for murine and human PPAR-alpha, PPAR-gamma, and PPAR-delta are each fused to the yeast transcription factor GAL4 DNA binding domain. CV-1 cells were transiently transfected with expression vectors for the respective PPAR chimera along with a reporter construct containing four or five copies of the GAL4 DNA binding site driving expression of luciferase. After 8-16 h, the cells are replated into multi-well assay plates and the media is exchanged to phenol-red free DME medium supplemented with 5% delipidated calf serum. 4 hours after replating, cells were treated with either compounds or 1% DMSO for 20-24 hours. Luciferase activity was then assayed with Britelite (Perkin Elmer) following the manufacturer's protocol and measured with either the Perkin Elmer Viewlux or Molecular Devices Acquest (see, for example, Kliewer, S. A., et. al. Cell 1995, 83, 813-819). Rosiglitazone is used as a positive control in the PPARγ assay. Wy-14643 and GW7647 are used as positive controls in the PPARα assay. GW501516 is used as the positive control in the PPARδ assay.
# [2] = biological target: T2, PPAR-alpha ligand binding domain fused to GAL4 DNA binding domain (UniProt Q07869); experiment: Transient transfection transactivation assay in CV-1 cells, PPAR-alpha (GAL4 chimera, luciferase reporter)
# T2 sequence (Q07869 1-468): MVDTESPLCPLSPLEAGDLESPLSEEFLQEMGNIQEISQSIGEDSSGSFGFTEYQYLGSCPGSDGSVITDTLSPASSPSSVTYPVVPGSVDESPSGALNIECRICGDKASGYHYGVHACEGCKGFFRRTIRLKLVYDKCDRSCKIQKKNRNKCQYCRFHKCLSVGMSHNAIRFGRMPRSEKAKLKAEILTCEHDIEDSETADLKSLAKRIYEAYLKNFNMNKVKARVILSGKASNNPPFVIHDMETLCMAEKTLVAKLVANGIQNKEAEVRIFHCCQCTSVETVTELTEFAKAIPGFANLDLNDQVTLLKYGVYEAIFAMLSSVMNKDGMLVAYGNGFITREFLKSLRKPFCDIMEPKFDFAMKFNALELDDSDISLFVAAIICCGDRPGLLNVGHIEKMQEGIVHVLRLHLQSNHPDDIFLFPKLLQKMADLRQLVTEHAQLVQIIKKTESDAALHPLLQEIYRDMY
# Source text: as §1
# [3] = biological target: T3, PPAR-gamma ligand binding domain fused to GAL4 DNA binding domain (UniProt P37231); experiment: Transient transfection transactivation assay in CV-1 cells, PPAR-gamma (GAL4 chimera, luciferase reporter)
# T3 sequence (P37231 1-505): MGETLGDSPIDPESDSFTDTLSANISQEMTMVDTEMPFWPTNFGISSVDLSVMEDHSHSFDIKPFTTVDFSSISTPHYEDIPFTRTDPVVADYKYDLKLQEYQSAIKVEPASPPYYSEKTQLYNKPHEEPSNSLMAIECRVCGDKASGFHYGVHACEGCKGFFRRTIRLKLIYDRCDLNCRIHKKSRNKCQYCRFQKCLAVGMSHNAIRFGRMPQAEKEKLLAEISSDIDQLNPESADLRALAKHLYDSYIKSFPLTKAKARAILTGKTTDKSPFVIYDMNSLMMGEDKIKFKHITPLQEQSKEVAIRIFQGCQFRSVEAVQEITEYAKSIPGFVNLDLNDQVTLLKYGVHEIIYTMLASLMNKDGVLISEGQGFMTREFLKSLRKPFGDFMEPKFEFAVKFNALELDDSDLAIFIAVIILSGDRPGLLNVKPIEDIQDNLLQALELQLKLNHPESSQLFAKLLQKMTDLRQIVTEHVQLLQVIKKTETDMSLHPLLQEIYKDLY
# Source text: as §1
SMILES,EC50 [1],EC50 [2],EC50 [3]
"C[C@@H]1CN(CCc2ccc(OC(F)(F)F)cc2)C[C@H](C)N1S(=O)(=O)c1cccc2c1CC(C(=O)O)C2 (mixture of isomers) [Example 12A, 4-(cis-2,6-Dimethyl-4-(4-(trifluoromethoxy)phenethyl)piperazin-1-ylsulfonyl)-2,3-dihydro-1H-indene-2-carboxylic acid]",< 5 µM,> 100 µM,> 100 µM
"C[C@@H]1CN(CC(c2ccc(Cl)cc2)c2ccc(Cl)cc2)C[C@H](C)N1S(=O)(=O)c1cccc2c1CC(C(=O)O)C2 (stereo partly drawn) [Example 28, 4-(4-(2,2bis(4-Chlorophenyl)ethyl)-(cis)-2,6-dimethylpiperazin-1-ylsulfonyl)-2,3-dihydro-1H-indene-2-carboxylic acid]",> 100 µM,> 100 µM,> 100 µM
"O=C(O)C1Cc2cccc(S(=O)(=O)N3CCN(C(=O)c4ccc(OC(F)(F)F)cc4)CC3)c2C1 (stereo not drawn) [Example 18, 4-(4-(4-(trifluoromethoxy)benzoyl)piperazin-1-ylsulfonyl)-2,3-dihydro-1H-indene-2-carboxylic acid]",5 to 100 µM,> 100 µM,> 100 µM
"O=C(O)C1Cc2cccc(S(=O)(=O)N3CCN(C(=O)Cc4ccc(OC(F)(F)F)cc4)CC3)c2C1 (stereo not drawn) [Example 19, 4-(4-(2-(4-(trifluoromethoxy)phenyl)acetyl)piperazin-1-ylsulfonyl)-2,3-dihydro-1H-indene-2-carboxylic acid]",5 to 100 µM,> 100 µM,5 to 100 µM
"C[C@@H]1CN(CCc2ccc(Cl)cc2)C[C@H](C)N1S(=O)(=O)c1cccc2c1CC(C(=O)O)C2 (stereo partly drawn) [Example 24, 4-(4-(4-chlorophenethyl)-(cis)-2,6-dimethylpiperazin-1-ylsulfonyl)-2,3-dihydro-1H-indene-2-carboxylic acid]",< 5 µM,> 100 µM,> 100 µM
"C[C@@H]1CN(Cc2cccc(OC(F)(F)F)c2)C[C@H](C)N1S(=O)(=O)c1cccc2c1CC(C(=O)O)C2 (stereo partly drawn) [Example 3, 4-[cis-2,6-Dimethyl-4-(3-(trifluoromethoxy)benzyl)piperazine-1-sulfonyl]-2,3-dihydro-1H-indene-2 carboxylic acid]",< 5 µM,> 100 µM,5 to 100 µM

# Results, then the compound that gave them:
EC50 [1],EC50 [2],EC50 [3],SMILES
< 5 µM,> 100 µM,> 100 µM,"C[C@@H]1CN(Cc2ccc(C(F)(F)F)c(F)c2)C[C@H](C)N1S(=O)(=O)c1cccc2c1CC(C(=O)O)C2 (stereo partly drawn) [Example 1, 4-(4-(3-Fluoro-4-(trifluoromethyl)benzyl)-cis-2,6-dimethylpiperazin-1-ylsulfonyl)-2,3-dihydro-1H-indene-2-carboxylic acid]"
< 5 µM,> 100 µM,5 to 100 µM,"C[C@@H]1CN(CCCc2ccc(OC(F)(F)F)cc2)C[C@H](C)N1S(=O)(=O)c1cccc2c1CC(C(=O)O)C2 (stereo partly drawn) [Example 17, 4-(cis-2,6-dimethyl-4-(3-(4-(trifluoromethoxy)phenyl)propyl)piperazin-1-ylsulfonyl)-2,3-dihydro-1H-indene-2-carboxylic acid]"
< 5 µM,> 100 µM,> 100 µM,"C[C@@H]1CN(C(=O)Cc2ccc(OC(F)(F)F)cc2)C[C@H](C)N1S(=O)(=O)c1cccc2c1CC(C(=O)O)C2 (stereo partly drawn) [Example 7, 4-(cis-2,6-Dimethyl-4-(2-(4-(trifluoromethoxy)phenyl)acetyl)piperazin-1-ylsulfonyl)-2,3-dihydro-1H-indene-2-carboxylic acid]"
